Values quoted from earlier work in patent US8338381B2, “Composition and method for the treatment of eye disease” (ADER Enterprise, Inc., priority 2003, dated 2012).

Legend:
[1] = administered directly to the eye; Babizhayev 1996
eye cataracts = details: administered directly to the eye; Babizhayev 1996

NCCC(=O)N[C@@H](Cc1cnc[nH]1)C(=O)O [L-carnosine, β-alanyl-L-histidine]
accumulation in the aqueous humor of the eye [1]: does not lead to accumulation in the aqueous humor of the eye | effect on eye cataracts beyond placebo control (eye cataracts): does not lead to accumulation in the aqueous humor of the eye or have any significant effect on eye cataracts beyond that of a placebo control
